In patent US20140093884A1, “Process for Identifying Novel Anti-Inflammatory Molecules with Reduced Direct Transrepression of Genes Induced by Glucocorticoids” (UNIVERSITE DE STRASBOURG, priority 2011, published 2014):
One block for each compound: values may come before it.

What was measured:
TSLP = TSLP transcript levels in mouse ear epidermis after topical treatment (Q-RT-PCR); assay type: in vivo
Description: Mice. […] Real time PCR. Total RNA was reverse transcribed using hexamers, followed by Q-PCR, as reported (Li et al., 2005). The GC agonist fluocinolone acetonide (FA) was applied to ears of mice concomitantly treated with the “low-calcemic” Vitamin D3 (VitD3) analog MC903 (Calcipotriol; hereafter called MC) to trigger TSLP expression (Li et al., 2006). […] As expected, the expression of the GC-inducible GPX3 (glutathione peroxidase 3) gene which harbours a (+)GRE (Tuckermann et al., 1999) was enhanced by FA (FIG. 10) and inhibited by RU co-treatment, while FA or RU had no effect on MC-dependent expression of the CYP24A1 gene (a VitD3 target) (FIG. 10). […] Although the basal TSLP level was similar in vehicle-treated WT and GR^ep−/− mice, FA blocked MC-induced TSLP expression in WT, but not in GR^ep−/− mice (not shown).

[1] = test system: GPX3 (glutathione peroxidase 3) gene, (+)GRE; assay: GPX3 transcript levels in mouse ear epidermis after topical treatment (Q-RT-PCR); assay type: in vivo; conditions: WT mice, ears, topical, FIG. 10
Description: (§1) Mice. […] Real time PCR. Total RNA was reverse transcribed using hexamers, followed by Q-PCR, as reported (Li et al., 2005). The GC agonist fluocinolone acetonide (FA) was applied to ears of mice concomitantly treated with the “low-calcemic” Vitamin D3 (VitD3) analog MC903 (Calcipotriol; hereafter called MC) to trigger TSLP expression (Li et al., 2006). […] As expected, the expression of the GC-inducible GPX3 (glutathione peroxidase 3) gene which harbours a (+)GRE (Tuckermann et al., 1999) was enhanced by FA (FIG. 10) and inhibited by RU co-treatment, while FA or RU had no effect on MC-dependent expression of the CYP24A1 gene (a VitD3 target) (FIG. 10).

[2] = test system: IR nGRE genes CCND1, PRKCB, FSTL1; conditions: mouse, in vivo
Procedure: (§2) Gene transcripts in epidermis of WT and GRdim mutant mice topically treated as indicated for 6 hours are analysed by Q-RT-PCR.
(§3) Note that epidermis was treated as indicated with TPA, to activate NFκB and AP1 factors.

[3] = test system: IR nGRE (pGL3(VDRE) IR1 nGRE luciferase reporter); assay: Luciferase reporter assay in A549 cells, pGL3(VDRE) IR nGRE plasmids; assay type: cell-based, human; conditions: pGL3(VDRE) IR1 nGRE
Procedure: Luciferase reporter assay. A549 cells seeded on 24-well tissue culture plates overnight at 70% confluency were transfected with 100 ng pCMV β galactosidase, 200 ng pGL3 reporter plasmids and wherever indicated, with 600 ng pSG5 hVDR plasmid (Green et al., 1988) into each well and maintained in medium containing charcoal treated FCS. 24 hours post-transfection, medium was changed and different compounds were added to it for 6 hours. […] Luciferase assay was carried out as instructed (Promega). Normalized values are reported as the mean±SEM; each value originates from at least three individual transfections with assays performed in duplicate.
To investigate whether additional DNA elements could be required to generate a repressing activity, the TSLP IR1 nGRE was inserted upstream of an enhancerless SV40 early promoter located 5′ to the luciferase coding sequence of pGL3 vector, A VDRE separated from the IR1 nGRE by a 314 bp-long DNA segment devoid of any known transregulator binding site (not shown) was inserted to generate a luciferase-expressing reporter plasmid (pGL3(VDRE) IR1 nGRE, FIG. 4), which was transfected into A549 cells, followed by addition of VitD3 and/or FA.
To investigate whether the 1 bp spacer between the inverted repeated motifs of TSLP IR1 nGRE was critical for its repressing function, pGL3-based luciferase plasmids containing the VDRE and TSLP nGRE motifs spaced by 0 to 5 bases (IR0 to IR5 nGREs) were transfected into A549 cells.

[4] = test system: IR0 and IR2 nGRE containing genes; assay: Dex with RU co-administration, expression of IR0 and IR2 genes in epidermis, intestinal epithelium and liver; assay type: in vivo, mouse; conditions: Dex-treated mice, in all cases
Procedure: Mice. For topical treatment, 1 nmole (nm)/cm^2 MC903, at-RA or TPA; 6 nm/cm^2 FA, Dex or RU24858; and 90 nm/cm^2 RU486 were used. For systemic use, 100 ng/kg body weight active Vit D3, 8 mg/kg Dex and 64 mg/kg RU486 was intraperitoneally injected. GRdim mice were from the European Mouse Mutant Archives (EM:02123). Breeding, maintenance and experimental manipulation of mice were approved by the Animal Care and Use Committee of the IGBMC.

[5] = test system: CYP24A1 gene (a VitD3 target); assay: CYP24A1 transcript levels in mouse ear epidermis after topical treatment (Q-RT-PCR); assay type: in vivo; conditions: mouse ears, FIG. 10
Description: as §1

[6] = test system: Cox2 gene (NFκB and AP1 binding sites); assay: Q-RT-PCR of Cox2 in epidermis of WT and GRdim mice topically treated 6 hours (TPA-activated); conditions: mouse, in vivo
Procedure: as §2, §3

[7] = test system: (+)GRE-containing GPX3 gene; assay: GPX3 expression in mouse epidermis after topical RU24858; assay type: in vivo
Description: (§4) Real time PCR. Total RNA was reverse transcribed using hexamers, followed by Q-PCR, as reported (Li et al., 2005).
(§5) The “activity profile” of RU24858 was also investigated in vivo.

GR [8] = biological target: T1, GR (Homo sapiens, UniProt P04150); conditions: cited from earlier work
T1 sequence (P04150 1-777): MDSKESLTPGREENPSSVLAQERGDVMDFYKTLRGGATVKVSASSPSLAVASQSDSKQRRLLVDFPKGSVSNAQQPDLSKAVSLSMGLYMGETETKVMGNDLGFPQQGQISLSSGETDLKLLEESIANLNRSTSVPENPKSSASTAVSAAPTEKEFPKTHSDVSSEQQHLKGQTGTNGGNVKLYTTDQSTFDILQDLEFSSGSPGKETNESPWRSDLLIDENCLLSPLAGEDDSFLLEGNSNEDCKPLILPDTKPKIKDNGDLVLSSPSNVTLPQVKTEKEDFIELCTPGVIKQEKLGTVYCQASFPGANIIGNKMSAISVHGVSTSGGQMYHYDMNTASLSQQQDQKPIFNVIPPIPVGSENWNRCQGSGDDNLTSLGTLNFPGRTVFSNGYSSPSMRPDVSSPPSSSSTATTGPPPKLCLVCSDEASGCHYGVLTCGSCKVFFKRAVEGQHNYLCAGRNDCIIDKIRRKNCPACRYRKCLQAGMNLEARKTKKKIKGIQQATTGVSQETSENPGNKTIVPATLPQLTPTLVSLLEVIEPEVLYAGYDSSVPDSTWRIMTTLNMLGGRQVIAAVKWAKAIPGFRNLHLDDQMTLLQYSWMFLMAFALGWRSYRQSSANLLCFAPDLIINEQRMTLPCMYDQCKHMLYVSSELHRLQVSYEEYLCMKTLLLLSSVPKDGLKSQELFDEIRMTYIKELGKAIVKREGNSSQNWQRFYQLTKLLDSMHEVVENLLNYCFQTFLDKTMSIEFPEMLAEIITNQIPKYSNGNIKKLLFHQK

[9] = test system: AP1-driven transcription (PGL4-AP1 vector); assay: Luciferase assay in IL-1β-activated A549 cells transfected with PGL4-AP1; assay type: cell-based, human; conditions: 6 hours, FIG. 15A right panel
Procedure: (§6) A549 cells transfected with PGL4-NFκB (NFκBluc plasmid) of SEQ ID NO:56 and PGL4-AP1 (AP1luc plasmid) of SEQ ID NO:55 were treated as indicated for 6 hours, followed by luciferase assay. “BAY”=NFκB-specific inhibitor BAY 11-7082 and “JNK inhibit”=JNK inhibitor II). • B) Q-RT-PCR of gene transcripts from WT dorsal epidermis topically-treated with Dexamethasone or RU24858 for 18 hours (left panel) and from liver of WT mice IP-injected with Dexamethasone or RU24858 for 18 hours (right panel).
(§7) Luciferase reporter assay. A549 cells seeded on 24-well tissue culture plates overnight at 70% confluency were transfected with 100 ng pCMV β galactosidase, 200 ng pGL3 reporter plasmids and wherever indicated, with 600 ng pSG5 hVDR plasmid (Green et al., 1988) into each well and maintained in medium containing charcoal treated FCS. 24 hours post-transfection, medium was changed and different compounds were added to it for 6 hours. Final concentrations of the compounds are: FA, 500 nM; Dex or RU24858, 300 nM or 500 nM (wherever 300 nM Dex or RU was used, it is indicated in the figure, in all other cases, 500 nM concentration was used); active vitamin D3, 1 μM; IL-1β, 5 ng/ml; BAY 11-7082, 5 μM, JNK inhibitor II, 25 μM. Luciferase assay was carried out as instructed (Promega). […]

GR [10] = biological target: T1, GR; conditions: cited from earlier work; remark: listed apart in the source
[11] = test system: NFκB-driven transcription (PGL4-NFκB vector); assay: Luciferase assay in IL-1β-activated A549 cells transfected with PGL4-NFκB; assay type: cell-based, human; conditions: 6 hours, FIG. 15A left panel
Procedure: as §6, §7

[12] = biological target: T2, repressing complex tethered to NFκB (Homo sapiens, UniProt P04150); assay: ChIP of repressing complex tethered to NFκB on PGL4-NFκB vector in A549 cells; assay type: cell-based
T2 construct: GR-expressing cells are in vitro cultured cells, preferably human lung epithelial carcinoma cells A549; endogenous in cells; host or cells: A549 (CCL-185, ATCC)
T2 sequence (P04150 1-777): T1 sequence (P04150 1-777)
Procedure: For ChIP assays to test GR and cofactor binding to the nGRE, +GRE or NFκB region of various luciferase reporter plasmids, ˜60% confluent A549 cells in 100 mm TC dish were transfected with 2 μg of respective plasmids using fugene 6 reagent (Roche) and maintained in charcoal treated FCS containing medium. 44 hours post-transfection, 500 nM FA or Dex or RU24858 and/or 5 μM RU486, 5 ng/ml IL-1β (final conc.) was added to the medium for 2 hours, followed by formaldehyde treatment and processing as described above.

[13] = biological target: T3, GR complexes on (+)GRE and nGRE regions (Mus musculus, UniProt P06537); assay: ChIP in vivo after RU24858 treatment
T3 construct: from tissue; host or cells: mouse epidermis, pancreas, liver
Description: as §5

[14] = test system: (+)GRE-containing GGT1 and ERP27 genes; assay: GGT1 and ERP27 expression in mouse liver after RU24858; assay type: in vivo
Description: as §4, §5

[15] = test system: (+)GRE (PGL3(VDRE) (+)GRE luciferase reporter); assay: Luciferase reporter assay in A549 cells, PGL3(VDRE) (+)GRE vector; assay type: cell-based, human; conditions: compared with Dex
Procedure: as §7, with “(Promega). Normalized values are reported as the mean±SEM; each value originates from at least three individual transfections with assays performed in duplicate.” for “(Promega).”

[16] = test system: genes of which the skin expression was enhanced by topical TPA treatment; assay: Down-regulation of TPA-enhanced genes in mouse skin (NFκB-mediated tethered transrepression); assay type: in vivo; conditions: compared with Dex
Description: as §5

[17] = test system: IR0, IR1 and IR2 nGRE-containing genes; assay: Q-RT-PCR of IR nGRE-containing genes in WT mouse epidermis or liver after Dexamethasone or RU24858 for 18 hours; conditions: in vivo, FIG. 15B, compared with Dex
Procedure: as §6, §4, §5

Compound: C=C1/C(=C\C=C2/CCC[C@]3(C)[C@@H]([C@H](C)/C=C/[C@@H](O)C4CC4)CC[C@@H]23)C[C@@H](O)C[C@@H]1O [MC903, Calcipotriol]
MC-induced TSLP expression in GRep-/- compared with WT mice (TSLP; GRep-/- vs WT mice): more efficient
TSLP RNA level (TSLP; WT mice, ears, topical MC903): increase

Compound: CC#C[C@]1(O)CC[C@H]2[C@@H]3CCC4=CC(=O)CCC4=C3[C@@H](c3ccc(N(C)C)cc3)C[C@@]21C [RU486, mifepristone]
FA-enhanced GPX3 expression upon RU co-treatment [1]: inhibited
effect of Dex treatment on IR nGRE-mediated transrepression upon excess RU co-treatment [2]: reverted
FA-induced decrease of luciferase expression (IR1 nGRE) upon RU addition [3]: prevented
GC-induced repression of IR0 and IR2 genes upon co-administration of RU [4]: relieved
effect on MC-dependent expression of the CYP24A1 gene [5]: no effect
effect of RU on NFκB/AP1-mediated tethered transrepression [6]: little effect
FA block of MC-induced TSLP RNA upon RU co-treatment (TSLP; WT mice, ears, topical): restored
FA-induced inhibition of basal TSLP RNA level upon co-application of RU486 (TSLP; WT mice, ears, topical): relieved

recruiting a repressing complex tethered to NFκB bound to its cognate element [12]: as efficient as Dex
Compound: C[C@@H]1C[C@H]2[C@@H]3CCC4=CC(=O)C=C[C@]4(C)[C@@]3(F)[C@@H](O)C[C@]2(C)[C@H]1C(=O)CC#N [RU24858]
GC-dependent expression of the (+)GRE-containing GPX3 gene [7]: did not activate
dissociation upon administration in vivo (GR [8]): failed to confirm this dissociation
repression of IL1β-induced activation of transcription by AP1 [9]: almost as efficient as Dex
dissociated profile (tethered indirect transrepression vs direct transactivation) in vitro (GR [10]): exhibit the expected dissociated profile in vitro
repression of IL1β-induced activation of transcription by NFκB [11]: almost as efficient as Dex
GR-SMRT/NCoR repressing complexes on nGRE regions [13]: recruitment of GR-SMRT/NCoR repressing complexes
assembly of an activating complex on (+)GRE of GPX3, GGT1 and ERP27 [13]: did not induce assembly of an activating complex
GC-dependent expression of the ERP27 gene [14]: did not activate
GC-dependent expression of the GGT1 gene [14]: did not activate
inducing transactivation of (+)GRE pGL3 luciferase plasmid [15]: much less efficient than Dex
down-regulating, through NFκB-mediated tethered transrepression, genes enhanced by topical TPA [16]: as efficient as Dex
transrepression of IR0 nGRE gene CCND1 [17]: as efficient as Dex
transrepression of IR1 nGRE gene CYP26A1 [17]: as efficient as Dex
transrepression of IR1 nGRE gene K14 [17]: as efficient as Dex
transrepression of IR1 nGRE gene PRKCB [17]: as efficient as Dex
transrepression of IR1 nGRE gene TSLP [17]: as efficient as Dex
transrepression of IR2 nGRE gene DPAGT1 [17]: as efficient as Dex
